{"source": "paper PMC11470957", "about": "“Principles of paralog-specific targeted protein degradation engaging the C-degron E3 KLHDC2” (Nature Communications, 2024)", "key": {"[1]": {"test_system": "BRD proteins in U2OS KO/rescue lysate", "assay": "Degradation in non-denaturing lysates of U2OS KO/rescue cells", "conditions": "non-denaturing U2OS KO/rescue lysate 4mg/ml, 10 µM, 30° C"}, "BRD2": {"target": "BRD2 (Homo sapiens, UniProt P25440)", "sequence (P25440 whole entry)": "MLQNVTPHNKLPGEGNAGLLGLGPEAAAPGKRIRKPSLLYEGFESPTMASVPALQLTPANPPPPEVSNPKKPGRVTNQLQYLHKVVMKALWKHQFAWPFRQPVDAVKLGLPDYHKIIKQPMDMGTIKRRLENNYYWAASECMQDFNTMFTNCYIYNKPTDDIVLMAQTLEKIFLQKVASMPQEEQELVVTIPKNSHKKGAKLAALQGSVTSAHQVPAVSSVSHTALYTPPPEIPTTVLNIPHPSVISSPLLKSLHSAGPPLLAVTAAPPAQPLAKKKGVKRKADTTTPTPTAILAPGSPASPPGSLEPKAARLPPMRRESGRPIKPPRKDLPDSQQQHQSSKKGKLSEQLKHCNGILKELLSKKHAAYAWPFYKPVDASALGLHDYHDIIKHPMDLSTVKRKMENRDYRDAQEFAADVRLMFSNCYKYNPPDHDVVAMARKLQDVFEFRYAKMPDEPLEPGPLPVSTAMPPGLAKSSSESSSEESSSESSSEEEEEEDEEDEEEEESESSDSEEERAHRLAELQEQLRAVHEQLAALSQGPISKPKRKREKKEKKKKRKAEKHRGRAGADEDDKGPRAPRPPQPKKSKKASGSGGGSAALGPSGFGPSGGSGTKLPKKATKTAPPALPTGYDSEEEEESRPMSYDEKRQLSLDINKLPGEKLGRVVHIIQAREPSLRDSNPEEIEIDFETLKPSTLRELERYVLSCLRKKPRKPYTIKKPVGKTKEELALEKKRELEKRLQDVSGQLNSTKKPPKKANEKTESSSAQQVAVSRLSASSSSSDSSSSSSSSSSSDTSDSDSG", "assay": "Western blot of BRD2 levels after cellular dosing", "conditions": "for remaining activity at 2.19382 µM: Log SJ46420 (uM) 2.19382; for remaining activity at 2.79588 µM: Log SJ46420 (uM) 2.79588"}, "[2]": {"conditions": "22Rv1, read-out: BRD2 (DMSO = 100), 22Rv1 cells, Rep1, Rep2"}, "[3]": {"conditions": "PC-3, read-out: BRD2 (DMSO = 100), PC3 cells, Rep1, Rep2"}}, "note": "Like-named read-outs stand apart in the source and are kept apart here.", "data": [{"smiles": "COC(=O)CNC(=O)Cc1csc(-c2ccc3cccc(OCCN4CCN(C(=O)C[C@@H]5N=C(c6ccc(Cl)cc6)c6c(sc(C)c6C)-n6c(C)nnc65)CC4)c3c2)n1", "note": "[SJ46420]", "values": [{"measurement": "degrader dependent decrease in BRD protein levels in lysate", "setting": "[1]", "result": "did not observe a degrader dependent decrease"}, {"measurement": "remaining activity at 0.16 µM", "setting": "BRD2; 22Rv1, 24 h, read-out: BRD2 level relative to DMSO (100%), 22Rv1, 0.16µM, 24 h, Fig S6f", "result": "99 ± 7.4", "unit": "%"}, {"measurement": "remaining activity at 0.31 µM", "setting": "BRD2; 22Rv1, 24 h, read-out: BRD2 level relative to DMSO (100%), 22Rv1, 0.31µM, 24 h, Fig S6f", "result": "92 ± 16", "unit": "%"}, {"measurement": "remaining activity at 0.63 µM", "setting": "BRD2; 22Rv1, 24 h, read-out: BRD2 level relative to DMSO (100%), 22Rv1, 0.63µM, 24 h, Fig S6f", "result": "93 ± 8.7", "unit": "%"}, {"measurement": "remaining activity at 1.3 µM", "setting": "BRD2; 22Rv1, 24 h, read-out: BRD2 level relative to DMSO (100%), 22Rv1, 1.3µM, 24 h, Fig S6f", "result": "88 ± 1.3", "unit": "%"}, {"measurement": "remaining activity at 2.5 µM", "setting": "BRD2; 22Rv1, 24 h, read-out: BRD2 level relative to DMSO (100%), 22Rv1, 2.5µM, 24 h, Fig S6f", "result": "83 ± 5.5", "unit": "%"}, {"measurement": "remaining activity at 5 µM", "setting": "BRD2; 22Rv1, 24 h, read-out: BRD2 level relative to DMSO (100%), 22Rv1, 5µM, 24 h, Fig S6f", "result": "87 ± 7.4", "unit": "%"}, {"measurement": "remaining activity at 10 µM", "setting": "BRD2; 22Rv1, 24 h, read-out: BRD2 level relative to DMSO (100%), 22Rv1, 10µM, 24 h, Fig S6f", "result": "92 ± 5.6", "unit": "%"}, {"measurement": "remaining activity at 2.19382 µM", "setting": "BRD2; [2]", "result": 94.2, "unit": "%"}, {"measurement": "remaining activity at 2.79588 µM", "setting": "BRD2; [2]", "result": 98.7, "unit": "%"}, {"measurement": "remaining activity at 3.09691 µM", "setting": "BRD2; 22Rv1, read-out: BRD2 (DMSO = 100), 22Rv1 cells, Log SJ46420 (uM) 3.09691, Rep1, Rep2", "result": 88.1, "unit": "%"}, {"measurement": "remaining activity at 3.39794 µM", "setting": "BRD2; 22Rv1, read-out: BRD2 (DMSO = 100), 22Rv1 cells, Log SJ46420 (uM) 3.39794, Rep1, Rep2", "result": 87.2, "unit": "%"}, {"measurement": "remaining activity at 3.69897 µM", "setting": "BRD2; 22Rv1, read-out: BRD2 (DMSO = 100), 22Rv1 cells, Log SJ46420 (uM) 3.69897, Rep1, Rep2", "result": 92.7, "unit": "%"}, {"measurement": "remaining activity at 4 µM", "setting": "BRD2; 22Rv1, read-out: BRD2 (DMSO = 100), 22Rv1 cells, Log SJ46420 (uM) 4, Rep1, Rep2", "result": 96.3, "unit": "%"}, {"measurement": "Dmax", "setting": "BRD2; 22Rv1, read-out: BRD2 Dmax, 22Rv1, 24 h dose", "result": 0, "unit": "%"}, {"measurement": "remaining activity at 0.156 µM", "setting": "BRD2; 22Rv1, read-out: BRD2 level, Western blot quantification (DMSO = 100), Fig S6f, 22RV1 KO/rescue Dose Response, 0.156 uM", "result": 94.2, "unit": "%"}, {"measurement": "remaining activity at 0.625 µM", "setting": "BRD2; 22Rv1, read-out: BRD2 level, Western blot quantification (DMSO = 100), Fig S6f, 22RV1 KO/rescue Dose Response, 0.625 uM", "result": 98.7, "unit": "%"}, {"measurement": "remaining activity at 1.25 µM", "setting": "BRD2; 22Rv1, read-out: BRD2 level, Western blot quantification (DMSO = 100), Fig S6f, 22RV1 KO/rescue Dose Response, 1.25 uM", "result": 88.1, "unit": "%"}, {"measurement": "remaining activity at 2.5 µM", "setting": "BRD2; 22Rv1, read-out: BRD2 level, Western blot quantification (DMSO = 100), Fig S6f, 22RV1 KO/rescue Dose Response, 2.5 uM", "result": 87.2, "unit": "%"}, {"measurement": "remaining activity at 5 µM", "setting": "BRD2; 22Rv1, read-out: BRD2 level, Western blot quantification (DMSO = 100), Fig S6f, 22RV1 KO/rescue Dose Response, 5 uM", "result": 92.7, "unit": "%"}, {"measurement": "remaining activity at 10 µM", "setting": "BRD2; 22Rv1, read-out: BRD2 level, Western blot quantification (DMSO = 100), Fig S6f, 22RV1 KO/rescue Dose Response, 10uM", "result": 96.3, "unit": "%"}, {"measurement": "remaining activity at 0.16 µM", "setting": "BRD2; 24 h, read-out: BRD2 level relative to DMSO (100%), PC3, 0.16µM, 24 h, Fig S6e", "result": "90 ± 11", "unit": "%"}, {"measurement": "remaining activity at 0.31 µM", "setting": "BRD2; 24 h, read-out: BRD2 level relative to DMSO (100%), PC3, 0.31µM, 24 h, Fig S6e", "result": "98 ± 2.9", "unit": "%"}, {"measurement": "remaining activity at 0.63 µM", "setting": "BRD2; 24 h, read-out: BRD2 level relative to DMSO (100%), PC3, 0.63µM, 24 h, Fig S6e", "result": "83 ± 3.4", "unit": "%"}, {"measurement": "remaining activity at 1.3 µM", "setting": "BRD2; 24 h, read-out: BRD2 level relative to DMSO (100%), PC3, 1.3µM, 24 h, Fig S6e", "result": "89 ± 5.6", "unit": "%"}, {"measurement": "remaining activity at 2.5 µM", "setting": "BRD2; 24 h, read-out: BRD2 level relative to DMSO (100%), PC3, 2.5µM, 24 h, Fig S6e", "result": "92 ± 9.1", "unit": "%"}, {"measurement": "remaining activity at 5 µM", "setting": "BRD2; 24 h, read-out: BRD2 level relative to DMSO (100%), PC3, 5µM, 24 h, Fig S6e", "result": "91 ± 7.6", "unit": "%"}, {"measurement": "remaining activity at 10 µM", "setting": "BRD2; 24 h, read-out: BRD2 level relative to DMSO (100%), PC3, 10µM, 24 h, Fig S6e", "result": "88 ± 9.1", "unit": "%"}, {"measurement": "remaining activity at 0.2 µM", "setting": "BRD2; AU565, 8 h, read-out: BRD2 level relative to DMSO (100%), AU565, 0.2µM, 8 h, Fig S6c", "result": "93 ± 3.1", "unit": "%"}, {"measurement": "remaining activity at 1 µM", "setting": "BRD2; AU565, 8 h, read-out: BRD2 level relative to DMSO (100%), AU565, 1µM, 8 h, Fig S6c", "result": "96 ± 6.2", "unit": "%"}, {"measurement": "remaining activity at 5 µM", "setting": "BRD2; AU565, 8 h, read-out: BRD2 level relative to DMSO (100%), AU565, 5µM, 8 h, Fig S6c", "result": "90 ± 5.1", "unit": "%"}, {"measurement": "remaining activity at 0.2 µM", "setting": "BRD2; AU565, read-out: BRD2 level, Western blot quantification (DMSO = 100), Fig S6c, AU565 Cells, 0.2 uM", "result": 91.6, "unit": "%"}, {"measurement": "remaining activity at 1 µM", "setting": "BRD2; AU565, read-out: BRD2 level, Western blot quantification (DMSO = 100), Fig S6c, AU565 Cells, 1 uM", "result": 101, "unit": "%"}, {"measurement": "remaining activity at 5 µM", "setting": "BRD2; AU565, read-out: BRD2 level, Western blot quantification (DMSO = 100), Fig S6c, AU565 Cells, 5 uM", "result": 87, "unit": "%"}, {"measurement": "remaining activity at 2.5 µM", "setting": "BRD2; HEK-293T, 24 h, read-out: BRD2 level relative to DMSO (100%), 293T, 2.5µM, 24 h, Fig S6a", "result": "89 ± 9.5", "unit": "%"}, {"measurement": "remaining activity at 5 µM", "setting": "BRD2; HEK-293T, 24 h, read-out: BRD2 level relative to DMSO (100%), 293T, 5µM, 24 h, Fig S6a", "result": "92 ± 2.5", "unit": "%"}, {"measurement": "remaining activity at 2.5 µM", "setting": "BRD2; HEK-293T, read-out: BRD2 level, Western blot quantification (DMSO = 100), Fig S6a, 293T cells, 2.5 uM", "result": 82, "unit": "%"}, {"measurement": "remaining activity at 5 µM", "setting": "BRD2; HEK-293T, read-out: BRD2 level, Western blot quantification (DMSO = 100), Fig S6a, 293T cells, 5 uM", "result": 91.4, "unit": "%"}, {"measurement": "remaining activity at 2.5 µM", "setting": "BRD2; MDA-MB-468, 24 h, read-out: BRD2 level relative to DMSO (100%), MDA-MB-468, 2.5µM, 24 h, Fig S6b", "result": "79 ± 8.9", "unit": "%"}, {"measurement": "remaining activity at 5 µM", "setting": "BRD2; MDA-MB-468, 24 h, read-out: BRD2 level relative to DMSO (100%), MDA-MB-468, 5µM, 24 h, Fig S6b", "result": "89 ± 3.9", "unit": "%"}, {"measurement": "remaining activity at 10 µM", "setting": "BRD2; MDA-MB-468, 24 h, read-out: BRD2 level relative to DMSO (100%), MDA-MB-468, 10µM, 24 h, Fig S6b", "result": "91 ± 3.1", "unit": "%"}, {"measurement": "remaining activity at 2 µM", "setting": "BRD2; MDA-MB-468, read-out: BRD2 level, Western blot quantification (DMSO = 100), Fig S6b, MDA-MB468 Cells, 2 uM", "result": 73.4, "unit": "%"}, {"measurement": "remaining activity at 5 µM", "setting": "BRD2; MDA-MB-468, read-out: BRD2 level, Western blot quantification (DMSO = 100), Fig S6b, MDA-MB468 Cells, 5 uM", "result": 86.5, "unit": "%"}, {"measurement": "remaining activity at 10 µM", "setting": "BRD2; MDA-MB-468, read-out: BRD2 level, Western blot quantification (DMSO = 100), Fig S6b, MDA-MB468 Cells, 10 uM", "result": 89.6, "unit": "%"}, {"measurement": "remaining activity at 1.89279 µM", "setting": "BRD2; PC-3, read-out: BRD2 (DMSO = 100), PC3 cells, Log SJ46420 (uM) 1.89279, Rep1, Rep2", "result": 89, "unit": "%"}, {"measurement": "remaining activity at 2.19382 µM", "setting": "BRD2; [3]", "result": 83.3, "unit": "%"}, {"measurement": "remaining activity at 2.49485 µM", "setting": "BRD2; PC-3, read-out: BRD2 (DMSO = 100), PC3 cells, Log SJ46420 (uM) 2.49485, Rep1, Rep2", "result": 100, "unit": "%"}, {"measurement": "remaining activity at 2.79588 µM", "setting": "BRD2; [3]", "result": 81.2, "unit": "%"}]}]}
